# Measured values published in ChEMBL document CHEMBL1150970, “Starfish saponins. 55. Isolation, structure elucidation, and biological activity of the steroid oligoglycosides from an Antarctic starfish of the family Asteriidae” (J Nat Prod, 1998).
# Test: Cytotoxicity against human NSCLC-L16 cells
# Type: functional, cell-based
row,Structure (SMILES),IC50 [µg/mL]
1,CC(C)CC(=O)C[C@](C)(O)[C@H]1CC[C@H]2[C@@H]3C[C@H](O[C@@H]4O[C@H](C)[C@@H](O)[C@H](O[C@@H]5O[C@H](C)[C@@H](O[C@@H]6O[C@H](CO)[C@H](O)[C@H](O)[C@H]6O[C@@H]6O[C@H](C)[C@H](O)[C@H](O[C@@H]7O[C@H](CO)[C@H](O)[C@H](O)[C@H]7O)[C@H]6O)[C@H](O)[C@H]5O[C@@H]5O[C@H](C)[C@@H](O)[C@H](O)[C@H]5O)[C@H]4C)[C@H]4C[C@@H](OS(=O)(=O)[O-])CC[C@]4(C)C3=CC[C@@]21C.[Na+] [ASTERIIDOSIDE A],> 30
2,C=C(CC[C@](C)(O)[C@H]1CC[C@H]2[C@@H]3C[C@H](O[C@@H]4O[C@H](C)[C@@H](O)[C@H](O[C@@H]5OC[C@@H](O[C@@H]6O[C@H](C)[C@H](O)[C@H](O)[C@H]6O[C@@H]6OC[C@H](O)[C@H](O[C@@H]7O[C@H](CO)[C@H](O)[C@H](O)[C@H]7O)[C@H]6O)[C@H](O)[C@H]5O[C@@H]5O[C@H](C)[C@@H](O)[C@H](O)[C@H]5O)[C@H]4C)[C@H]4C[C@@H](OS(=O)(=O)[O-])CC[C@]4(C)C3=CC[C@@]21C)C(C)C.[Na+] [ASTERIIDOSIDE D],11.4
3,CC(C)=CCC[C@](C)(O)[C@H]1CC[C@H]2[C@@H]3C[C@H](O[C@@H]4O[C@H](C)[C@@H](O)[C@H](O[C@@H]5OC[C@@H](O[C@@H]6O[C@H](C)[C@H](O)[C@H](O)[C@H]6O[C@@H]6OC[C@H](O)[C@H](O[C@@H]7O[C@H](CO)[C@H](O)[C@H](O)[C@H]7O)[C@H]6O)[C@H](O)[C@H]5O[C@@H]5O[C@H](C)[C@@H](O)[C@H](O)[C@H]5O)[C@H]4C)[C@H]4C[C@@H](OS(=O)(=O)[O-])CC[C@]4(C)C3=CC[C@@]21C.[Na+] [ASTERIIDOSIDE E],18.1
4,C[C@@H](C/C=C/[C@@H](C)[C@H]1[C@@H](O)[C@@H](O)[C@@H]2[C@]1(C)CC[C@@H]1[C@@]3(C)CC[C@H](O[C@@H]4OC[C@@H](O)[C@H](O)[C@H]4O)C[C@@H]3[C@@H](O)C[C@]12O)CO[C@@H]1OC[C@@H](O)[C@H](O)[C@H]1O [ASTERIIDOSIDE F],> 30
5,CC(C)[C@H](/C=C/[C@@H](C)[C@H]1C[C@@H](O)[C@@H]2[C@]1(C)CC[C@@H]1[C@@]3(C)CC[C@H](O[C@@H]4OC[C@@H](O)[C@H](O)[C@H]4O)C[C@@H]3[C@@H](O)[C@@H](O)[C@]12O)O[C@@H]1OC[C@@H](O)[C@H](OS(=O)(=O)[O-])[C@H]1O.[Na+] [ASTERIIDOSIDE I],> 30
6,CC(C)[C@@H](/C=C/[C@@H](C)[C@H]1C[C@H](O)[C@@H]2[C@]1(C)CC[C@@H]1[C@@]3(C)CC[C@H](O[C@@H]4OC[C@@H](O)[C@H](O)[C@H]4O)C[C@@H]3[C@H](O)C[C@]12O)COS(=O)(=O)[O-].[Na+] [ASTERIIDOSIDE L],> 30
